Measurements as given in PubChem BioAssay (NCI).
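Following 48 hours of exposure in 96-well plates, responses at five concentrations were used to interpolate endpoints linearly. TGI is the concentration that stops growth completely.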

How the values were obtained:
Test in all cases: NCI tumour cell line growth inhibition, 48 h
[1] = tested on: SK-MEL-28 melanoma
[2] = tested on: ACHN renal
[3] = tested on: HT29 colon
[4] = tested on: DU-145 prostate
[5] = tested on: PC-3 prostate
[6] = tested on: MDA-MB-231 breast
[7] = tested on: CAKI-1 renal
[8] = tested on: NCI-H226 lung
[9] = tested on: KM12 colon
[10] = tested on: HOP-92 NSCLC

Compound | TGI [1] | TGI [2] | TGI [3] | TGI [4] | TGI [5] | TGI [6] | TGI [7] | TGI [8] | TGI [9] | TGI [10]
CCn1c(-c2ccc(C)cc2)cs/c1=N\C(P(=O)(O)O)P(=O)(O)O | > 100 µM | > 100 µM | > 100 µM | > 100 µM | > 100 µM | > 100 µM | > 100 µM | > 100 µM | > 100 µM | > 100 µM
COc1ccc(C2SCC(=O)N2NC(=O)C(C)Oc2ccccc2Cl)cc1 (stereo not given) | > 100 µM | > 100 µM | > 100 µM | > 100 µM | > 100 µM | > 100 µM | > 100 µM | > 100 µM | > 100 µM | 77.4 µM
COc1cc2c(cc1OC)C(Cc1ccccc1CCCl)=NCC2 | > 100 µM | > 100 µM | > 100 µM | > 100 µM | > 100 µM | > 100 µM | > 100 µM | > 100 µM | > 100 µM | > 100 µM
COc1ccc(CCc2ccc(O)c(C(=O)O)c2)cc1OC | > 100 µM | > 100 µM | > 100 µM | > 100 µM | > 100 µM | > 100 µM | > 100 µM | > 100 µM | > 100 µM | > 100 µM
Clc1ccc2c(NCCNc3ccnc4cc(Cl)ccc34)ccnc2c1 | 32.5 µM | 32.7 µM | 29.5 µM | 48.2 µM | 34.5 µM | 32.2 µM | 34.8 µM | 62.5 µM | 32.5 µM | 38.5 µM
CN[C@@H](C)[C@H](OP(=O)(O)OC1[C@@H](O)[C@H](O)C(O)[C@H](O)[C@@H]1O)c1ccccc1 (stereo not given in full) | > 100 µM | > 100 µM | > 100 µM | > 100 µM | > 100 µM | > 100 µM | > 100 µM | > 100 µM | > 100 µM | > 100 µM
